In brackets after ≈: the same amount, converted by molar mass. Like-named read-outs stand apart in the source and are kept apart here.
Legend:
E. faecalis MMX 848 = experiment: MIC/MBC testing (Example 5); format: cell-based
Streptococcus pneumoniae [1] = experiment: Broth microdilution MIC, aerobic bacteria (Example 4); format: cell-based; conditions: ATCC49619
Lactobacillus jensenii = experiment: Broth microdilution MIC, anaerobic bacteria (Example 4); format: cell-based; conditions: isolate MMX 4149
S. aureus ATCC 29213 = experiment: MIC/MBC testing (Example 5); format: cell-based
B. fragilis ATCC 25285 = experiment: MIC/MBC testing (Example 5); format: cell-based; conditions: Bacteroides fragilis, ATCC25285
Bifidobacterium bifidum [2] = experiment: Broth microdilution MIC, anaerobic bacteria (Example 4); format: cell-based; conditions: isolate MMX 3965
E. faecalis ATCC 29212 = experiment: MIC/MBC testing (Example 5); format: cell-based
Clostridium difficile [3] = experiment: Broth microdilution MIC, anaerobic bacteria (Example 4); format: cell-based; conditions: Clostridioides difficile
[4] = system: Staphylococcus aureus (MRSA); experiment: microbe, parasite or virus in culture; format: cell-based; conditions: Staphylococcus aureus, MRSA
Aspergillus fumigatus = experiment: Broth microdilution MIC, fungi (Example 4); format: cell-based; conditions: Aspergillus fumigatus
[5] = system: Enterococcus faecalis (VRE); experiment: microbe, parasite or virus in culture; format: cell-based; conditions: Enterococcus faecalis, VRE
S. pneumoniae ATCC 49619 = experiment: MIC/MBC testing (Example 5); format: cell-based
S. pyogenes MMX 404 = experiment: MIC/MBC testing (Example 5); format: cell-based
Clostridium difficile [6] = experiment: Broth microdilution MIC, anaerobic bacteria (Example 1); format: cell-based; conditions: Clostridioides difficile
S. aureus MMX 757 = experiment: MIC/MBC testing (Example 5); format: cell-based
[7] = system: Enterococcus faecalis (VSE); experiment: Broth microdilution MIC, aerobic bacteria (Example 4); format: cell-based; conditions: ATCC29212
gram-negative aerobes = experiment: Broth microdilution MIC, summary (Example 4); format: cell-based; conditions: tested alone
B. bifidum MMX 3965 = experiment: MIC/MBC testing (Example 5); format: cell-based
Streptococcus pneumoniae [8] = experiment: Broth microdilution MIC, aerobic bacteria (Example 1); format: cell-based; conditions: Streptococcus pneumoniae
Streptococcus pyogenes = experiment: as above; format: cell-based; conditions: Streptococcus pyogenes, isolate MMX 404, read-out: MIC
Bifidobacterium bifidum [9] = experiment: Broth microdilution MIC, anaerobic bacteria (Example 1); format: cell-based; conditions: Bifidobacterium bifidum
Pseudomonas aeruginosa = experiment: Broth microdilution MIC, aerobic bacteria (Example 4); format: cell-based
[10] = system: Staphylococcus aureus (MSSA); experiment: as above; format: cell-based; conditions: ATCC 29213 / MSSA
strains tested = experiment: MIC/MBC testing, summary (Example 5); format: cell-based
[11] = Compound precipitation in uninoculated solubility controls (Example 1); format: physicochemical; design: key to precipitation observed (type): NA: not applicable (no precipitation observed); TRP: trace precipitate; DCP: distinct precipitate
Experimental: Plates were stacked 3-4 high, covered with a lid on the top plate, placed in plastic bags, and incubated at 35° C. for approximately 16 to 20 hr (aerobes), 20 to 24 hr (Streptococcus), and 24 and 48 hr (fungi). Anaerobe plates were stacked, covered with a lid on the top plate, placed in a BD GasPak EZ Anaerobe Container System and incubated at 35° C. for 48 hr. Following incubation, the microplates were removed from the incubator and viewed from the bottom using a plate viewer. […] The MIC was read and recorded as the lowest concentration of drug that inhibited visible growth of the organism.

[12] = system: evaluated yeast and fungal isolates; experiment: Broth microdilution MIC, summary (Example 4); format: cell-based
[13] = ratios of 1-4 are indicative of bactericidal activity
[14] = Staphylococcus aureus, ATCC29213
[15] = Enterococcus faecalis, ATCC29212
[16] = read-out: inhibits the growth (IC50)
[17] = Streptococcus pneumoniae, ATCC49619
[18] = Bifidobacterium bifidum, MMX3965

## C=C(C)[C@@H]1CCC(C)=C[C@H]1c1c(O)cc(CCCCC)cc1O [CBD, cannabidiol]
E. faecalis MMX 848; Enterococcus faecalis, MMX848
  MBC: 2 µg/mL (≈ 6.36 µM)
  MIC: 1 µg/mL (≈ 3.18 µM)
E. faecalis MMX 848; [13]
  MBC:MIC: 2
Streptococcus pneumoniae [1]
  MIC: 4 µg/mL (≈ 12.7 µM)
Lactobacillus jensenii
  MIC: > 128 µg/mL
S. aureus ATCC 29213; [14]
  MBC: 2 µg/mL (≈ 6.36 µM)
  MIC: 1 µg/mL (≈ 3.18 µM)
S. aureus ATCC 29213; [13]
  MBC:MIC: 2
B. fragilis ATCC 25285
  MIC: 16 µg/mL (≈ 50.9 µM)
Bifidobacterium bifidum [2]
  MIC: 8 µg/mL (≈ 25.4 µM)
E. faecalis ATCC 29212; [15]
  MBC: 2 µg/mL (≈ 6.36 µM)
  MIC: 2 µg/mL (≈ 6.36 µM)
E. faecalis ATCC 29212; [13]
  MBC:MIC: 1
Clostridium difficile [3]; ATCC700057, Example 4, isolate MMX 4381 (ATCC 700057)
  MIC: 64 µg/mL (≈ 204 µM)
Clostridium difficile [3]; Example 4, isolate MMX 8330
  MIC: 64 µg/mL (≈ 204 µM)
Clostridium difficile [3]; Example 4, isolate MMX 8333
  MIC: 64 µg/mL (≈ 204 µM)
[4]
  MIC: 2 µg/mL (≈ 6.36 µM)
[4]; [16]
  IC50: 2 µg/mL (≈ 6.36 µM)
Aspergillus fumigatus; 48 h, read-out: MIC at 48 hr
  MIC: > 128 µg/mL
Aspergillus fumigatus; Example 4, 24 hr, isolate MMX 5280 (MYA-3626), read-out: MIC at 24 hr
  MIC: > 128 µg/mL
[5]
  MIC: 2 µg/mL (≈ 6.36 µM)
[5]; [16]
  IC50: 2 µg/mL (≈ 6.36 µM)
S. pneumoniae ATCC 49619; [17]
  MBC: 4 µg/mL (≈ 12.7 µM)
  MIC: 1 µg/mL (≈ 3.18 µM)
S. pneumoniae ATCC 49619; [13]
  MBC:MIC: 4
S. pyogenes MMX 404; Streptococcus pyogenes, MMX404
  MBC: 32 µg/mL (≈ 102 µM)
  MIC: 32 µg/mL (≈ 102 µM)
S. pyogenes MMX 404; [13]
  MBC:MIC: 1
Clostridium difficile [6]; ATCC00057, Example 1, isolate MMX 4381 (ATCC 00057)
  MIC: 32 µg/mL (≈ 102 µM)
Clostridium difficile [6]; Example 1, isolate MMX 8330, read-out: MIC
  MIC: 32 µg/mL (≈ 102 µM)
Clostridium difficile [6]; Example 1, isolate MMX 8333, read-out: MIC
  MIC: 32 µg/mL (≈ 102 µM)
Clostridium difficile [6]; [16]
  IC50: 32 µg/mL (≈ 102 µM)
S. aureus MMX 757; Staphylococcus aureus, MMX757
  MBC: 1 µg/mL (≈ 3.18 µM)
  MIC: 1 µg/mL (≈ 3.18 µM)
S. aureus MMX 757; [13]
  MBC:MIC: 1
[7]
  MIC: 2 µg/mL (≈ 6.36 µM)
gram-negative aerobes
  activity against Gram-negative aerobes: inactive
B. bifidum MMX 3965; [18]
  MBC: 32 µg/mL (≈ 102 µM)
  MIC: 16 µg/mL (≈ 50.9 µM)
B. bifidum MMX 3965; [13]
  MBC:MIC: 2
Streptococcus pneumoniae [8]; ATCC49619, Example 1, isolate MMX 1195 (ATCC 49619), read-out: MIC
  MIC: 4 µg/mL (≈ 12.7 µM)
Streptococcus pneumoniae [8]; Example 1 summary of findings, read-out: inhibits the growth (IC50)
  IC50: 4 µg/mL (≈ 12.7 µM)
Streptococcus pyogenes
  MIC: 16 µg/mL (≈ 50.9 µM)
Bifidobacterium bifidum [9]; Example 1, isolate MMX 3965, read-out: MIC
  MIC: 2 µg/mL (≈ 6.36 µM)
Bifidobacterium bifidum [9]; Example 1 summary of findings, read-out: inhibits the growth (IC50 values)
  IC50: 2 µg/mL (≈ 6.36 µM)
Pseudomonas aeruginosa
  MIC: > 128 µg/mL
[10]
  MIC: 2 µg/mL (≈ 6.36 µM)
Strains tested
  biocidal activity against the strains tested: overall biocidal
[11]; MHB II
  lowest concentration at which precipitation was observed: 16 µg/mL
  precipitation observed (type): TRP
[11]; MHB II with Blood
  lowest concentration at which precipitation was observed: 128 µg/mL
  precipitation observed (type): TRP
[12]
  activity against yeast and fungal isolates: Neither THC nor CBD were active

From patent publication US11207291B2, “Antimicrobial compositions comprising cannabinoids and methods of using the same” (Graphium Biosciences, Inc., priority 2017, dated 2021)
